A short description of data set [1]: Hygroscopicity assay, standing 48 hours at 25° C., humidity 79%. The data set is classed as physicochemical. The settings on record: for Percentage of weight gain / hygroscopicity: 48 hours, 25° C., humidity 79%. The method, then: The hygroscopicity test of the compounds of the present disclosure after standing for 48 hours
1. The arid glass weighing bottle with a tap (external diameter is 50 mm, the height is 15 mm) was placed at 25° C.±1° C. suitably in a thermostatic drier (saturated ammonium sulfate solution was laid in the lower part, humidity was 79%) the day before the assay, precise weight was measured as (m1);
2. The above weighing bottle was covered with the compounds of the invention (about 1 g), and the thickness of the compounds were generally 1 mm, precise weight was measured as (m2);
3. The mouth of the weighing bottle was kept open and placed with the tap in the above conditions with constant temperature and humidity for 48 hours;
4. Put the tap back on the bottle, precise weight was measured as (m3)
The degree of hygroscopicity was defined as follows: […]
Deliquesce: turning into liquid by absorbing enough moisture.
High hygroscopicity: the percentage of hygroscopicity weight gain is not less than 15%.
Hygroscopicity: the percentage of hygroscopicity weight gain is less than 15%, but not less than 2%.
Sparing hygroscopicity: the percentage of hygroscopicity weight gain is less than 2%, but not less than 0.2%.
No hygroscopicity or almost no hygroscopicity: the percentage of hygroscopicity weight gain is less than 0.2%.

A short description of data set [2]: Pharmacokinetics assay in rats. The data set is classed as in vivo, SD rats. In short, it runs like this: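 SD rats, half male and half female, dosed intragastrically with compound suspended at 5 mg/mL (as free acid) in 1% sodium carboxymethyl cellulose; fed 2 h post-dose. Plasma concentrations over time were measured by HPLC-UV. Parameters came from a compartmental fit, with Cmax and tmax as observed values.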

Data set [3] in a line: Pharmacokinetics assay in Beagle dogs. The data set is classed as in vivo. The settings on record: for Vd/F / AUC / CL/F / half-life / MRT / Cmax / Tmax: male, beagle, dog, plasma, po; for Vd/F: read-out: Apparent Distribution Volume Vz/F; for AUC: read-out: Area Under Curve AUC; for CL/F: read-out: Clearance CL/F (converted); for half-life: read-out: Half-Life t1/2 (converted); for MRT: read-out: Mean Residence Time MRT; for Cmax: read-out: Plasma Conc. Cmax; for Tmax: read-out: Time to peak Tmax. The method, then:
The pharmacokinetic behavior of the compounds of the present disclosure was studied and evaluated in Beagle dogs.
12 Healthy adult Beagles dogs, male, were purchased from Suzhou Xishan Drug Research and Development Colo., LTD. License number: SCXK (Suzhou) 2007-0005.
The test compound was diluted with 0.5% sodium carboxymethyl cellulose to 2.5 mg/mL (calculated as the free acid form) of suspension before use.
12 Healthy adult Beagles dogs, male, were divided into 4 groups. After an overnight fast, the dogs were administered intragastrically at a dose of 5.0 mg/kg (calculated as the free acid form), at a volume of 2 mL/kg.
Blood samples (1.2 mL) were taken from vein of forelegs at pre administration and at 0.25, 0.5, 1.0, 1.5, 2.0, 3.0, 5.0, 6.0, 8.0, 12.0, 14.0, 24.0 and 48.0 hours post administration, which were stored in heparinized tubes and centrifuged for 10 minutes at 3,500 rpm. The plasma samples were stored at −20° C. until analysis. The Beagles dogs were fed 2 hours after administration.
50 μL of Beagles dog plasma, obtained at various time points after administration, 20 μL of internal standard solution and 150 μL of methanol was added to result in protein precipitation. Then the mixture was mixed for 1 minute using a vortexer and centrifuged for 5 minutes at 11,000 rpm. 50 μL of the supernatant was analyzed by HPLC-UV.
The compartmental model of pharmacokinetics was fitted for the test compounds and the major pharmacokinetic parameters were calculated in which Cmax and tmax were the actually measured values.

Where [4] appears, read: SD rats, intragastric, 50 mg/Kg (as free acid), 50 mg/kg.
Where [5] appears, read: intragastric, 5 mg/kg (as free acid), 5 mg/kg.
Where [6] appears, read: 5 mg/kg, intragastric, 5 mg/kg (as free acid).

Structures are written as SMILES.

One may read the AUC as concentration integrated over time. In general, MRT refers to a mean duration of stay, worked out from the concentration-time curve. By Cmax is commonly meant the peak of the concentration-time curve. The Tmax is the time from dosing to the highest level.

Take `CC1=NN(c2ccc3c(c2)CCCC3)C(=O)/C1=N\Nc1cccc(-c2ccc(C(=O)O)o2)c1O` [Example 8, (Z)-5-(2-hydroxy-3-{N′-[3-methyl-5-oxo-1-(5,6,7,8-tetrahydro-naphthalen-2-yl)-1,5-dihydro-pyrazol-4-ylidene]-hydrazino}-phenyl)-furan-2-carboxylic acid bis-(choline)]: in data set [1], the “Percentage of weight gain” value is 13.9% and the hygroscopicity result is “Hygroscopicity (the percentage of hygroscopicity weight gain is less than 15%, but not less than 2%)”. Also, in data set [2] (setting [4]), the “Area Under Curve AUC” value came out at 352000 ± 586000 ng·h/mL, the “Clearance CL/F” value amounted to 15.4 ± 16.88 mL/min/kg, the “Half-Life t½” value is 10.6 ± 9.02 h and the “Plasma Conc. Cmax” value was determined as 36200 ± 46200 ng/mL. The “Time to peak Tmax” value in data set [2] (setting [4]) is 1.38 ± 1.11 h. Further, in data set [3] (setting [5]), the “Area Under Curve AUC” value turned out to be 7910 ng·h/mL, the “Clearance CL/F” value amounted to 14.6 mL/min/kg, the “Half-Life t1/2” value is 7.67 h and the “Plasma Conc. Cmax” value was 600 ng/mL. For the same molecule, the “Time to peak Tmax” value in data set [3] (setting [5]) was 0.5 h.

As to `CC1=NN(c2ccc3c(c2)CCCC3)C(=O)/C1=N\Nc1cccc(-c2ccc(C(=O)O)o2)c1O.NCCO.NCCO` [Example 7, (Z)-5-(2-hydroxy-3-{N′-[3-methyl-5-oxo-1-(5,6,7,8-tetrahydro-naphthalen-2-yl)-1,5-dihydro-pyrazol-4-ylidene]-hydrazino}-phenyl)-furan-2-carboxylic acid bis-(ethanolamine)], in data set [1], the “Percentage of weight gain” value turned out to be 1.2% and the hygroscopicity result is on record as “Sparing hygroscopicity (the percentage of hygroscopicity weight gain is less than 2%, but not less than 0.2%)”. In addition, the “hygroscopicity, in words” value in data set [1] (comparing to the other salts) is “less hydroscopic”. Also, the Vd/F in data set [2] (both sexes, SD, rat, plasma, po, 50 mg/kg, SD rats, intragastric, 50 mg/Kg (as free acid), read-out: Apparent Distribution Volume Vz/F) stood at 2.48 ± 0.92 L/kg. Besides, the AUC in data set [2] (both sexes, SD, rat, plasma, po, 50 mg/kg, SD rats, intragastric, 50 mg/Kg (as free acid), read-out: Area Under Curve AUC) was found to be 469000 ± 274000 ng·h/mL. Besides, the CL/F in data set [2] (both sexes, SD, rat, plasma, po, 50 mg/kg, SD rats, intragastric, 50 mg/Kg (as free acid), read-out: Clearance CL/F (converted)) was 2.92 mL/min/kg. For the same molecule, the half-life in data set [2] (both sexes, SD, rat, plasma, po, 50 mg/kg, SD rats, intragastric, 50 mg/Kg (as free acid), read-out: Half-Life t½ (converted)) was 13.9 ± 6.07 h. Further, in data set [2] (both sexes, SD, rat, plasma, po, 50 mg/kg, SD rats, intragastric, 50 mg/Kg (as free acid), read-out: Mean Residence Time MRT), the mean residence time (MRT) is 13.3 ± 5.12 h. In addition, the highest concentration (Cmax) in data set [2] (both sexes, SD, rat, plasma, po, 50 mg/kg, SD rats, intragastric, 50 mg/Kg (as free acid), read-out: Plasma Conc. Cmax) is 74100 ± 34500 ng/mL. Also, the Tmax in data set [2] (both sexes, SD, rat, plasma, po, 50 mg/kg, SD rats, intragastric, 50 mg/Kg (as free acid), read-out: Time to peak Tmax) amounted to 1.75 ± 0.5 h. Also, in data set [2] (rats, comparing to the free acid), the “pharmacokinetics and bioavailability, in words” value is reported as “good pharmacokinetic characteristics”. In addition, in data set [3] (among the four salts), the “pharmacokinetics, in words” value is “obviously superior in pharmacokinetics”. In data set [3] (setting [6]), the Vd/F was 5.72 L/kg, the exposure (AUC) was determined as 12200 ng·h/mL, the CL/F was 8.3 mL/min/kg and the half-life was 8.24 h. In addition, in data set [3] (setting [6]), the MRT was found to be 13.3 h, the highest concentration (Cmax) stood at 985 ng/mL and the Tmax turned out to be 1.2 h.

Turning to `CC1=NN(c2ccc3c(c2)CCCC3)C(=O)/C1=N\Nc1cccc(-c2ccc(C(=O)O)o2)c1O` [Example 12, (Z)-5-(2-hydroxy-3-{N′-[3-methyl-5-oxo-1-(5,6,7,8-tetrahydro-naphthalen-2-yl)-1,5-dihydro-pyrazol-4-ylidene]-hydrazino}-phenyl)-furan-2-carboxylic acid bis-(trometamol)], in data set [1], the “Percentage of weight gain” value stood at 2.71% and the hygroscopicity result is reported as “Hygroscopicity (the percentage of hygroscopicity weight gain is less than 15%, but not less than 2%)”. Besides, in data set [2] (setting [4]), the “Area Under Curve AUC” value came to 58500 ± 23800 ng·h/mL, the “Clearance CL/F” value is 16.7 ± 8.4 mL/min/kg, the “Half-Life t½” value is recorded as 5.1 ± 2.41 h and the “Plasma Conc. Cmax” value was 17800 ± 10300 ng/mL. Moreover, the “Time to peak Tmax” value in data set [2] (setting [4]) was found to be 1.38 ± 1.11 h. For the same molecule, in data set [3] (setting [6]), the Vd/F turned out to be 4.86 L/kg, the AUC is 11000 ng·h/mL, the CL/F was 11 mL/min/kg and the half-life was 6.86 h. Further, in data set [3] (setting [6]), the mean residence time MRT came out at 11.6 h, the Cmax turned out to be 811 ng/mL and the Tmax stood at 0.5 h.

Source of the values: patent US9120762B2, “Salts of bicyclo-substituted pyrazolon azo derivatives, preparation method and use thereof” (Jiangsu Hengrui Medicine Co., Ltd., priority 2009, dated 2015).
